Source: the supplement of paper PMC13380429

Legend:
Details in all cases: 72 h
Caco-2 [1] = test: cell viability relative to DMSO; higher = less toxic
Calu-3 [2] = test: as above
HepG2 [3] = test: as above
U2OS [4] = test: as above
Vero E6 [5] = test: as above
Caco-2 [6] = test: relative viability EC50 (midpoint between 100% and the lowest measured viability); higher = less toxic
Calu-3 [7] = test: as above
HepG2 [8] = test: as above
U2OS [9] = test: as above
Vero E6 [10] = test: as above
Caco-2 [11] = test: drug sensitivity score (DSS) for viability; higher = more toxic; extreme values may be limits of the assay
Calu-3 [12] = test: as above
HepG2 [13] = test: as above
U2OS [14] = test: as above
Vero E6 [15] = test: as above

Row | Structure (SMILES) | cell viability (Caco-2 [1]; 1 nM) [%] | cell viability (Caco-2 [1]; 10 nM) [%] | cell viability (Caco-2 [1]; 100 nM) [%] | cell viability (Caco-2 [1]; 1000 nM) [%] | cell viability (Caco-2 [1]; 10000 nM) [%] | cell viability (Calu-3 [2]; 1 nM) [%] | cell viability (Calu-3 [2]; 10 nM) [%] | cell viability (Calu-3 [2]; 100 nM) [%] | cell viability (Calu-3 [2]; 1000 nM) [%] | cell viability (Calu-3 [2]; 10000 nM) [%] | cell viability (HepG2 [3]; 1 nM) [%] | cell viability (HepG2 [3]; 10 nM) [%] | cell viability (HepG2 [3]; 100 nM) [%] | cell viability (HepG2 [3]; 1000 nM) [%] | cell viability (HepG2 [3]; 10000 nM) [%] | cell viability (U2OS [4]; 1 nM) [%] | cell viability (U2OS [4]; 10 nM) [%] | cell viability (U2OS [4]; 100 nM) [%] | cell viability (U2OS [4]; 1000 nM) [%] | cell viability (U2OS [4]; 10000 nM) [%] | cell viability (Vero E6 [5]; 1 nM) [%] | cell viability (Vero E6 [5]; 10 nM) [%] | cell viability (Vero E6 [5]; 100 nM) [%] | cell viability (Vero E6 [5]; 1000 nM) [%] | cell viability (Vero E6 [5]; 10000 nM) [%] | relative viability EC50 (Caco-2 [6]) [µM] | relative viability EC50 (Calu-3 [7]) [µM] | relative viability EC50 (HepG2 [8]) [µM] | relative viability EC50 (U2OS [9]) [µM] | relative viability EC50 (Vero E6 [10]) [µM] | drug sensitivity score (Caco-2 [11]) | drug sensitivity score (Calu-3 [12]) | drug sensitivity score (HepG2 [13]) | drug sensitivity score (U2OS [14]) | drug sensitivity score (Vero E6 [15])
1 | O=C(Nc1c(Cl)cncc1Cl)c1ccc(OC(F)F)c(OCC2CC2)c1 [roflumilast] | 104 | 101 | 97.3 | 100 | 101 | 89.1 | 107 | 94.2 | 93.8 | 98.6 | 106 | 96.9 | 101 | 101 | 128 | 96.4 | 98.5 | 94.2 | 94.8 | 99.5 | 101 | 91.2 | 99.3 | 102 | 103 | > 10 | > 10 | > 10 | > 10 | > 10 | 0 | 0 | 0 | 0 | 0
2 | COc1cc2c(cc1OC)CN(CCc1ccc(NC(=O)c3cc(OC)c(OC)cc3NC(=O)c3cnc4ccccc4c3)cc1)CC2 [tariquidar] | 89.2 | 94.2 | 99.8 | 95.3 | 108 | 93.5 | 94.6 | 84 | 101 | 103 | 102 | 90.9 | 108 | 93.5 | 105 | 94.9 | 100 | 97.2 | 103 | 103 | 105 | 94.5 | 96.8 | 96.4 | 107 | > 10 | > 10 | > 10 | > 10 | > 10 | 0 | 0 | 0 | 0 | 0
3 | CCCC[P+](CCCC)(CCCC)Cc1ccc(NC(=O)[C@H](Cc2ccc3ccccc3c2)N/C(=N/C2CCCCC2)NC2CCCCC2)cc1 | 90.8 | 100 | 87.9 | 102 | 81.4 | 94.7 | 91.2 | 97.5 | 97.4 | 86.2 | 95.5 | 107 | 117 | 97.3 | 88.5 | 98.7 | 99.7 | 96.5 | 96.6 | 88.9 | 102 | 97.7 | 107 | 100 | 90.7 | > 10 | > 10 | > 10 | > 10 | > 10 | 0.4 | 0 | 0.1 | 0 | 0
4 | CSc1ccc(C(=O)/C=C/c2cc(C)c(OC(C)(C)C(=O)O)c(C)c2)cc1 [elafibranor] | 99.5 | 92.5 | 103 | 90.5 | 84.6 | 101 | 97 | 100 | 108 | 114 | 101 | 108 | 93.5 | 99.1 | 96.3 | 99.7 | 94 | 97.7 | 98.1 | 94.3 | 90.8 | 97 | 89.5 | 91.1 | 98.5 | > 10 | > 10 | > 10 | > 10 | > 10 | 1 | 0 | 0 | 0 | 0
5 | C[C@@H](Oc1ccc(Cl)cc1)c1ccnc2ncnn12 | 97.2 | 91.7 | 94 | 109 | 93 | 118 | 97.6 | 100 | 89.7 | 95 | 95 | 102 | 92.7 | 96.3 | 107 | 95.8 | 94.3 | 99.3 | 99.9 | 99.2 | 96.2 | 97.7 | 90.1 | 96.2 | 106 | > 10 | > 10 | > 10 | > 10 | > 10 | 0 | 0 | 0 | 0 | 0
6 | C[C@@H](O)[C@H]1C(=O)N2C(C(=O)O)=C(SCCNC=N)C[C@H]12 [imipenem] | 97.2 | 98.4 | 98.2 | 92.6 | 106 | 88 | 87.6 | 107 | 86.3 | 93.4 | 98.7 | 98.5 | 96.2 | 100 | 107 | 99.1 | 98.2 | 102 | 97.4 | 97.2 | 97.9 | 102 | 89.2 | 100 | 110 | > 10 | > 10 | > 10 | > 10 | > 10 | 0 | 0 | 0 | 0 | 0
7 | CC(=O)Nc1ccc(S(=O)(=O)Nc2ccc([N+](=O)[O-])cc2)cc1 [sulfanitran] | 99 | 96.6 | 97.9 | 92.9 | 99.1 | 96.5 | 105 | 103 | 89 | 98.9 | 104 | 94.5 | 105 | 95 | 109 | 97.6 | 106 | 98.7 | 105 | 102 | 101 | 94.5 | 97 | 97.1 | 104 | > 10 | > 10 | > 10 | > 10 | > 10 | 0 | 0 | 0 | 0 | 0
